| Structure (SMILES) | melting point |
| --- | --- |
| c1ccc(Cn2cnc3c(OC4CN5CCC4CC5)nccc32)cc1 (centres undefined) | 162 to 183 °C |
| O=S1(=O)NCCCN1CCc1ccncc1 | 124 to 125 °C |
| Cn1ncc(/C=C/C(=O)Nc2ccc(CNC(=O)c3ccccc3)cc2)c1-c1ccc(F)cc1 | 250 to 251 °C |
| Cc1ccc(-c2nccc3c(C#N)cccc23)cc1 | 132 °C |
| CCC(=O)NC1COC2=CC3=C(OCCC3)C(=O)C21 (centres undefined) | 184 °C |
| O=c1[nH]c(S)ncc1O | > 300 °C |
| CC#CCOc1ccc([S@](=O)[C@@H](CCCCCC)C(=O)O)cc1 | 112 °C |
| COCn1c(-c2nc3c(OC)ccc(N4CCOCC4)c3s2)nc2ccc(N3CCOCC3)nc21 | 126 to 128 °C |
| CCOC(=O)C(=NO)C1=Nc2ccc(Cl)cc2C(c2ccccc2Cl)=NC1 | 219 to 221 °C |
| Clc1ccnc2cc3c(cc12)OCO3 | 130 to 132 °C |
| O=C(O)c1ccc(CO[N+](=O)[O-])cc1 | 159 to 161 °C |
| CCC1C(=O)N(CCCCN2CCN(c3ccccn3)CC2)c2cc(F)ccc21 (centres undefined) | 137 to 139 °C |
| COc1cc(Nc2c(C#N)cnc3cc(OCCCN4CCC(N5CCCCC5)CC4)c(OC)cc23)c(Cl)cc1Cl | 130 to 132 °C |
| NC(=O)c1ncn2c1[C@@H]1CCCN1C(=O)c1sccc1-2 | 222 to 223 °C |
| COc1cc2c(cc1OC)C(c1ccc([N+](=O)[O-])cc1)NN(C1=NC(=O)C(C)S1)C(C)C2 (centres undefined) | 213 to 214 °C |
| O=C(C=Cc1ccc(O)c([N+](=O)[O-])c1)NC12CC3CC(CC(C3)C1)C2 | 162 to 163 °C |
| c1ccc(Cn2c(NC3=NCCN3)nc3ccccc32)cc1 | 165 to 166 °C |
| C=CCSc1ccc(OCCO)nn1 | 38 to 40 °C |

The next lines start with the values.

| melting point | Structure (SMILES) |
| --- | --- |
| 130 to 131 °C | O=C1c2ccccc2COc2ccc(CC(=O)N(O)C3CCCCC3)cc21 |
| 137 °C | CCC(=O)Nc1cc(S(=O)(=O)c2ccccc2)ccc1NC(=NC(=O)OC)NC(=O)OC |
| > 230 °C | COCCNC(=O)c1ccc2c(c1)C(=NNc1ccc(S(N)(=O)=O)cc1)C(=O)N2 |
| 144 to 147 °C | COc1ccc(Sc2cc(C(=O)O)c[nH]2)cc1 |
| 146 to 147 °C | OCCCC1=NN(c2nccs2)C(O)(c2ccc(Cl)cc2)C1 (centres undefined) |
| 193 to 194 °C | O=C(O)C1CCc2c(c3cc(OCc4ccccc4)ccc3n2C(=O)c2ccccc2)C1 (centres undefined) |
| 313 to 315 °C | Cc1ccc2c(=O)n(C3CCC(=O)NC3=O)cnc2c1 (centres undefined) |
| > 250 °C | N[C@@]1(C(=O)O)C[C@H](NC(=O)Nc2ccccc2Cl)[C@H]2[C@H](C(=O)O)[C@H]21 (relative stereo) |
| > 225 °C | COc1ccc(F)cc1C(C)(C)CC(O)(Cn1cc(C)c(=O)c2ccccc21)C(F)(F)F (centres undefined) |
| 178 to 180 °C | CC(=O)Oc1c(Cl)cc(Cl)cc1C1(OC(C)=O)C(=O)c2ccccc2C1=O |
| 210 to 217 °C | COc1cc2ncc(C#N)c(Nc3ccc(F)c(Cl)c3)c2cc1NC(=O)C=CCN(C)OC |
| 106 to 107 °C | OCCNc1nc(NCc2ccccc2)c2ncc(Cl)cc2n1 |
| 175 to 177 °C | CCc1cc(NC(=O)C(CSC(C)=O)Cc2ccccc2)cc(C(=O)O)c1 (centres undefined) |
| 287 to 291 °C | O=c1c2cc(F)ccc2[nH]c2c([N+](=O)[O-])ccc(Cl)c12 |
| 142 to 144 °C | CCCCCCNc1cccc2c1C(=O)c1cccc(NCCCCCC)c1C2=O |
| 152 to 155 °C | CC(C)(C)c1nc2cc(N3CCN(c4ccccc4)CC3)c([N+](=O)[O-])cc2s1 |
| 118 to 119 °C | O=C(CCCCCNC(=O)c1cccc2ccccc12)NO |
| 185 to 188 °C | CC(C)NC(=O)NC1CCC(=O)c2ccccc21 (centres undefined) |
| 64 to 65 °C | CC1=C(C(=O)c2ccc(C(C)(C)C)cc2)C(=O)C2C=CC=CC2C1=O (centres undefined) |
| 163 to 165 °C | Cc1cccc(NC(=O)OCc2ccccn2)c1CNc1cccn2c(C)c(C)nc12 |
| 128 to 130 °C | O=C(O)CCCc1ccc(NS(=O)(=O)c2ccccc2)cc1 |

— a melting point compilation (Tetko et al.; mined from patent text by program, amines drawn as free bases though some values may be those of a salt)
